According to publication PMC3763901 (Bioorganic & medicinal chemistry letters, 2012):

Legend:
[1] = target: T1, stromelysin-1 catalytic domain (SCD) (Homo sapiens, UniProt P08254); conditions: in Tris–HCl, not corrected for proton transfer; cited from earlier work
[2] = target: T1, stromelysin-1 catalytic domain (SCD); experiment: Isothermal titration calorimetry of ligand binding

T1 sequence (P08254 100-272 limits assumed, species assumed): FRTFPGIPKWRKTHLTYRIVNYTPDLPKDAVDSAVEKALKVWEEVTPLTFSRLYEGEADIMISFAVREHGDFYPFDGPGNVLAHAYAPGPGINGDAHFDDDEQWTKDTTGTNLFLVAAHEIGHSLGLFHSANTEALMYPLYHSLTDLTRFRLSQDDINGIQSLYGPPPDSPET

For `Oc1ccccc1` [phenol], the ΔHobs [1] is listed as -4.7 kcal/mol.
With `CC(=O)NO` [Compound 8, acetohydroxamic acid] the “ΔG^0” value ([2]; ITC, pH 7.5, 3% DMSO) was -2.4 ± 0.3 kcal/mol, the ΔHbind0 ([2]; ITC, pH 7.5, 3% DMSO, corrected for proton transfer) was -2.3 ± 0.2 kcal/mol and the ΔCP ([2]; from titrations at 15, 25 and 37 °C, by regression) was −67 ± 24 cal mol^−1 K^−1.
